Test results taken from patent US7074789B2, “Kinase inhibitors” (Amgen Inc., priority 1999, dated 2006).

Columns and labels:
Assay type in all cases: biochemical
Lck = biological target: T1, Lck (Homo sapiens, UniProt P06239); assay: Kinase inhibition assay (33P transfer), Lck; conditions: read-out: Lck-1
T1 construct: Kinases are expressed as either kinase domains or full length constructs; made in house
In short: (§1)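 Activity was read as 33P incorporation, counted by liquid scintillation after a 0.5% phosphoric acid wash, into poly(Glu,Tyr) 4:1 or poly(Arg,Ser) 3:1 substrates coated on plates. Enzymes were tagged (GST or polyHis) kinase domains or full-length proteins from bacterial or insect-cell expression, sometimes with regulatory polypeptides.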

ErbB2 = biological target: T2, ErbB2 (Homo sapiens, UniProt P04626); assay: Kinase inhibition assay (33P transfer), ErbB2; conditions: read-out: ErbB2-2
T2 construct: Kinases are expressed as either kinase domains or full length constructs; made in house
In short: (§2)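 IC50: inhibitor concentration lowering 33P incorporation into immobilised substrate by 50%. Label transferred from ATP to poly(Glu,Tyr) 4:1 or poly(Arg,Ser) 3:1 is measured after a 0.5% phosphoric acid wash by liquid scintillation.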

PDGFRB = biological target: T3, PDGFRB (Homo sapiens, UniProt P09619); assay: Kinase inhibition assay (33P transfer), PDGFRB; conditions: read-out: PDGFRB-1
T3 construct: Kinases are expressed as either kinase domains or full length constructs; made in house

c-Met = biological target: T4, c-Met (Homo sapiens, UniProt P08581); assay: Kinase inhibition assay (33P transfer), c-Met; conditions: Table 2, kinase inhibition class; read-out: Met-1
T4 construct: Kinases are expressed as either kinase domains or full length constructs; made in house
In short: as §2

IGFR-1 = biological target: T5, IGFR-1 (Homo sapiens, UniProt P08069); assay: Kinase inhibition assay, IGFR-1 (Table 2); conditions: Table 2, kinase inhibition class
T5 construct: Kinases are expressed as either kinase domains or full length constructs; made in house

EGFR = biological target: T6, EGFR (Homo sapiens, UniProt P00533); assay: Kinase inhibition assay (33P transfer), EGFR; conditions: Table 2, kinase inhibition class; read-out: EGFR-1
T6 construct: Kinases are expressed as either kinase domains or full length constructs; made in house
In short: as §2

Itk = biological target: T7, Itk (Homo sapiens, UniProt Q08881); assay: Kinase inhibition assay (33P transfer), Itk; conditions: read-out: Itk-1
T7 construct: Kinases are expressed as either kinase domains or full length constructs; made in house
T7 sequence (Q08881 1-620): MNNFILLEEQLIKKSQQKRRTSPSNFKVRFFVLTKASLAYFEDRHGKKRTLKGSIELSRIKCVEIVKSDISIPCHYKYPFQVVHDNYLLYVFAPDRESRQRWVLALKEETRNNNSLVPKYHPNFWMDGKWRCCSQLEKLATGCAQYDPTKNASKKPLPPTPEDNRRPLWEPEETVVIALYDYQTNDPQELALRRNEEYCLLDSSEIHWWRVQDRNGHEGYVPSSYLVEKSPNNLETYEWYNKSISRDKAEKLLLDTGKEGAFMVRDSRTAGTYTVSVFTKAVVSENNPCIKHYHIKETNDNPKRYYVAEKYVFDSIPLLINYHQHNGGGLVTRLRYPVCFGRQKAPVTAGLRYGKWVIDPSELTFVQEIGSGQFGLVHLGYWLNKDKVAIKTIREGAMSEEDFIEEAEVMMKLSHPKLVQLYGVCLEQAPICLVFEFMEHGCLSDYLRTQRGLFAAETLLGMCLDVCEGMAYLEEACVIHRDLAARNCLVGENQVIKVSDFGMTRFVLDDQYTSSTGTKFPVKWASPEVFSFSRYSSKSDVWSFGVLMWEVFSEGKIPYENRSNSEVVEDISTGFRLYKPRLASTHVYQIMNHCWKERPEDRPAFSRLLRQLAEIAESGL
In short: as §2

Kdr = biological target: T8, Kdr (Homo sapiens, UniProt P35968); assay: Kinase inhibition assay (33P transfer), Kdr; conditions: read-out: KDR-1
T8 construct: Kinases are expressed as either kinase domains or full length constructs; made in house
In short: as §1

Zap-70 = biological target: T9, Zap-70 (Homo sapiens, UniProt P43403); assay: Kinase inhibition assay (33P transfer), Zap-70; conditions: read-out: Zap-1
T9 construct: Kinases are expressed as either kinase domains or full length constructs; made in house
T9 sequence (P43403 1-619): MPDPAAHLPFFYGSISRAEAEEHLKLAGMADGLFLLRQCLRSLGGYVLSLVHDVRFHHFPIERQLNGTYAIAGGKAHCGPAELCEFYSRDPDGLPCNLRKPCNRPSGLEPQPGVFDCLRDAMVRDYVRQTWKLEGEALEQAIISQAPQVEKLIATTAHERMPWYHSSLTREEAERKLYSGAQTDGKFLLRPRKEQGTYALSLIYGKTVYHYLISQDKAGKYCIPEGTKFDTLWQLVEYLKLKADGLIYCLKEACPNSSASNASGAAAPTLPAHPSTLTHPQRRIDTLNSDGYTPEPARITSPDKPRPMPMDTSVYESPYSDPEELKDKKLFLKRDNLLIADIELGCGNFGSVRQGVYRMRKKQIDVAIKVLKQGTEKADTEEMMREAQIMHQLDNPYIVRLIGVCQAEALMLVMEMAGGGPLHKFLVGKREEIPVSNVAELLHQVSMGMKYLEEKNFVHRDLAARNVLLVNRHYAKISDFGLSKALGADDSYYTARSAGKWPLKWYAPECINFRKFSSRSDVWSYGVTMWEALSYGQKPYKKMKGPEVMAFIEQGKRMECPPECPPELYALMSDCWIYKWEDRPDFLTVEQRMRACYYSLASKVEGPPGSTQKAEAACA
In short: as §1

AKT = biological target: T10, AKT (Homo sapiens, UniProt Q9Y243); assay: Kinase inhibition assay (33P transfer), AKT; conditions: Table 2, kinase inhibition class; read-out: AKT3-1
T10 construct: Kinases are expressed as either kinase domains or full length constructs; made in house
In short: as §1

T3 sequence (P09619 33-1106, species assumed): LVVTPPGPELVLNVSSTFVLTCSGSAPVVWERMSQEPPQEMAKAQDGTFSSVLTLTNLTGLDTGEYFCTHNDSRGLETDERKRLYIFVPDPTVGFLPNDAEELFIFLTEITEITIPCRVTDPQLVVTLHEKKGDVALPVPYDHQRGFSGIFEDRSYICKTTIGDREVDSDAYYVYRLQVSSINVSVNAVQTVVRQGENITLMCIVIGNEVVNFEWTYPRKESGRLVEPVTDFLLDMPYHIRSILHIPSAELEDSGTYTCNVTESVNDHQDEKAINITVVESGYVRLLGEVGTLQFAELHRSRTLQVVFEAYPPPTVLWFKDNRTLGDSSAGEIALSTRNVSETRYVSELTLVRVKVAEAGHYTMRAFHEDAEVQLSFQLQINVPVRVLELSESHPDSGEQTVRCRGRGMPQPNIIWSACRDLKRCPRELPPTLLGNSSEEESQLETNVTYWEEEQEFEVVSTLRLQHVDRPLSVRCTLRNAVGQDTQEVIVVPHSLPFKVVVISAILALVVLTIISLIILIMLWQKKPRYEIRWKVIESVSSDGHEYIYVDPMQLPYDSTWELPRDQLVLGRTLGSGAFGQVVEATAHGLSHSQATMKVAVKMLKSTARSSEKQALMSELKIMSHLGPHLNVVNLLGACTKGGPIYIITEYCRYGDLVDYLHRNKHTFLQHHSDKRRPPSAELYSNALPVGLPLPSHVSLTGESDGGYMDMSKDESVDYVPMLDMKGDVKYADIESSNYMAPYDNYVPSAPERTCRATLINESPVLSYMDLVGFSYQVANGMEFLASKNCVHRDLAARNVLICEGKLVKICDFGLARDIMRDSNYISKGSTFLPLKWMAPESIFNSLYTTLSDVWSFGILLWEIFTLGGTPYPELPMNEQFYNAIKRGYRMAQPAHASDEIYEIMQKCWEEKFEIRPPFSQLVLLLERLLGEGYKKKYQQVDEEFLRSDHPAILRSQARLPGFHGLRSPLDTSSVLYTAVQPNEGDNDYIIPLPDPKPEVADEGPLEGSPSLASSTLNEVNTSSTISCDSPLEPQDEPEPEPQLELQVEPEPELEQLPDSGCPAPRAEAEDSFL
T2 sequence (P04626 23-1255, species assumed): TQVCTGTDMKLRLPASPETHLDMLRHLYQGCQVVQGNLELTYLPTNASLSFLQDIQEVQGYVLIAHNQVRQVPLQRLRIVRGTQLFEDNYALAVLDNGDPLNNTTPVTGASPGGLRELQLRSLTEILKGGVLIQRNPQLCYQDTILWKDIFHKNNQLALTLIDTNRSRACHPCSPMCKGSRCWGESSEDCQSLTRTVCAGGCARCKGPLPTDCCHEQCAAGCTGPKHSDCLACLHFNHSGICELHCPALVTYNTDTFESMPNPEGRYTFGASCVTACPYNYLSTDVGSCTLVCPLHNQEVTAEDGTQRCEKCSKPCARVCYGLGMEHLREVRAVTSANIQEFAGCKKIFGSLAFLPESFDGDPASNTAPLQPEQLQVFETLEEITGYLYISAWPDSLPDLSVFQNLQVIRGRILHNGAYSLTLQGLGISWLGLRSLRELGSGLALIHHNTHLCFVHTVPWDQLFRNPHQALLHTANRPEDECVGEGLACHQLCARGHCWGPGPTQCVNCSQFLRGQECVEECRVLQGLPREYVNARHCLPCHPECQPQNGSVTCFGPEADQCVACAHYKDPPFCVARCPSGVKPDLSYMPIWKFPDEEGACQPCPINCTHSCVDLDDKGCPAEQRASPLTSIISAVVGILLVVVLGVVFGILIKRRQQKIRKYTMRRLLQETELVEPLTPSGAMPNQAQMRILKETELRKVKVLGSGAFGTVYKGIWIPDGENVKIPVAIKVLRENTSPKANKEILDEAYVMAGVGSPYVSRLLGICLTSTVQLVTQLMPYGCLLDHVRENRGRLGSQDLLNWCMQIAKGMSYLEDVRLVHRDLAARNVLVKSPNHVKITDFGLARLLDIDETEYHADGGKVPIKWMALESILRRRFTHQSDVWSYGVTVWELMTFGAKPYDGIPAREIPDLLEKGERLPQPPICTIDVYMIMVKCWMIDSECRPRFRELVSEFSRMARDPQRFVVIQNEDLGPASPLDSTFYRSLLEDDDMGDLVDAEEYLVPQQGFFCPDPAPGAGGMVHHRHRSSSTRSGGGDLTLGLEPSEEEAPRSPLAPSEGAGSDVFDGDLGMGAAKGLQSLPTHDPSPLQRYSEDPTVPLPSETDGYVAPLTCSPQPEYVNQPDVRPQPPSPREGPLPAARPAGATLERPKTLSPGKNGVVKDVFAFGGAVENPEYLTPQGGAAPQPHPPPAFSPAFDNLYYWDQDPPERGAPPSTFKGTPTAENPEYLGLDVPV
T10 sequence (Q9Y243 whole entry, the tested form may be a part): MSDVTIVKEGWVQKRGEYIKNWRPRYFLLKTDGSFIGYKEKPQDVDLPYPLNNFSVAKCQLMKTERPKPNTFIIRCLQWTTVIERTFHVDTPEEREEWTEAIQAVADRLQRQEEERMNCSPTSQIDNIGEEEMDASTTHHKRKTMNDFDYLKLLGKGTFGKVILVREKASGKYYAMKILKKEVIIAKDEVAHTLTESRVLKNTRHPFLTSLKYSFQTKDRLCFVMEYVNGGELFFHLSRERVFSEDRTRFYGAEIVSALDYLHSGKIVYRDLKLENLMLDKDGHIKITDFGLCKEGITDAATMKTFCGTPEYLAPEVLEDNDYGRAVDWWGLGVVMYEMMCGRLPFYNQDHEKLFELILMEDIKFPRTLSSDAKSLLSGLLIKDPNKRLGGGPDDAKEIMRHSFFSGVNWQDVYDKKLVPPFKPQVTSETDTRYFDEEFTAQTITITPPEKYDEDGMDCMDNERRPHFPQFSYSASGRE
T5 sequence (P08069 31-1367): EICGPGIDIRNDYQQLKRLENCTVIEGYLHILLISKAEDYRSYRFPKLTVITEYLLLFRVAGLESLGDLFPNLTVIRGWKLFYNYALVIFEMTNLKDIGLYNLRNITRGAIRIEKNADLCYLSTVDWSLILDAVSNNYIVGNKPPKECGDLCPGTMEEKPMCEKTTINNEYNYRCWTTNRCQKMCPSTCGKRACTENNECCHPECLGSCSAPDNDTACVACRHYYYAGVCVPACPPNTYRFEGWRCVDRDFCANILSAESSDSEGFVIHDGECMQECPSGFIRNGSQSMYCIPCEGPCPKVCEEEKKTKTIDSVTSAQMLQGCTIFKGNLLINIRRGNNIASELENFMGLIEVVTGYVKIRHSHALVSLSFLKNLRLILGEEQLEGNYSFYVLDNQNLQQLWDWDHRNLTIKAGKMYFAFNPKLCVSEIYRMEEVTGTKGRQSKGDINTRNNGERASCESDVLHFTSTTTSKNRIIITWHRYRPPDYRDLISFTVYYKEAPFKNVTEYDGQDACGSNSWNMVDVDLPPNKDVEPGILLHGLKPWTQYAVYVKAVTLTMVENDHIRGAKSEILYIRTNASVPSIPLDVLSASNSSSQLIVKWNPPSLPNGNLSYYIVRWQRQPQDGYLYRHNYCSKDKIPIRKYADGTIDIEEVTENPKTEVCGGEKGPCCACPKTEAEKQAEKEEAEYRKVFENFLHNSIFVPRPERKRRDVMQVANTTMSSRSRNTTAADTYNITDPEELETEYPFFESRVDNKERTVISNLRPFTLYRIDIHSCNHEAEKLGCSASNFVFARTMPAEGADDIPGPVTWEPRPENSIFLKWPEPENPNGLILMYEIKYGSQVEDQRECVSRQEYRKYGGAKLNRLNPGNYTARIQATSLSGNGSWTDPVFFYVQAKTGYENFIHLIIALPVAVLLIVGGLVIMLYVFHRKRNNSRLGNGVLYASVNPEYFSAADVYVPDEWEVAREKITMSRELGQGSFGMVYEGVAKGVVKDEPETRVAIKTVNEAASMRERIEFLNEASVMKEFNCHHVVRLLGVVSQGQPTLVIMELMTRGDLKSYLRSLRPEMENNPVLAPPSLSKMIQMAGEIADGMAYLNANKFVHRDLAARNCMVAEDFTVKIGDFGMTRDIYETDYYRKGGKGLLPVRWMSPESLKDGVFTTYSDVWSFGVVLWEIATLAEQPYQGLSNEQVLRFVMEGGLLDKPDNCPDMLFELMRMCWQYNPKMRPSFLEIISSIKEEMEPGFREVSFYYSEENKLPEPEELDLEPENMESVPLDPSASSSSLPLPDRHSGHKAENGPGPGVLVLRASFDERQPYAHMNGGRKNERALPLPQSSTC
T1 sequence (P06239 whole entry, species assumed, the tested form may be a part): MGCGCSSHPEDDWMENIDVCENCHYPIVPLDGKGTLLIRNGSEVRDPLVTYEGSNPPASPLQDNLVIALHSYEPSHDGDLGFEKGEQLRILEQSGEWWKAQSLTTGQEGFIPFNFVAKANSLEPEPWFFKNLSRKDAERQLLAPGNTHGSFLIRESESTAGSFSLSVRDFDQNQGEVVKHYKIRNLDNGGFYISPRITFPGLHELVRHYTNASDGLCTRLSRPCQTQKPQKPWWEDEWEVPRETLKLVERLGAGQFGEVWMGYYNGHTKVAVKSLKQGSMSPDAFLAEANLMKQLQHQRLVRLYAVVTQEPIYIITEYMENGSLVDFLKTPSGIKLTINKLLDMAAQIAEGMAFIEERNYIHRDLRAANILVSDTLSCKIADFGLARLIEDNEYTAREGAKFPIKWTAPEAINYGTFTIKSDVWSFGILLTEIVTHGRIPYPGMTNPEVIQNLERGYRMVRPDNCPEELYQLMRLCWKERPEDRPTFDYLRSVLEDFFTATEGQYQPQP

| SMILES | IC50 (Lck) [µM] | IC50 (ErbB2) [µM] | IC50 (PDGFRB) [µM] | IC50 (c-Met) [µM] | IC50 (IGFR-1) [µM] | IC50 (EGFR) [µM] | IC50 (Itk) [µM] | IC50 (Kdr) [µM] | IC50 (Zap-70) [µM] | IC50 (AKT) [µM] |
| --- | --- | --- | --- | --- | --- | --- | --- | --- | --- | --- |
| COc1cccc(Nc2ncnc(N(C)c3cccc(Cl)c3)n2)c1 [Compound 741] | 7.02 to 10.2 | 1.17 to 7.02 | 7.02 to 10.2 | > 13.2 | > 13.2 | < 1.17 | > 13.2 | > 13.2 | > 13.2 | > 13.2 |
| COc1ccc(Nc2ncnc(N(C)c3cccc(Cl)c3)n2)cc1OC [Compound 621] | 1.08 to 6.45 | < 1.08 | 1.08 to 6.45 | 1.08 to 6.45 | 6.45 to 9.41 | < 1.08 | > 12.1 | 1.08 to 6.45 | > 12.1 | > 12.1 |
| COc1cc(Nc2ncnc(Nc3cc(C(F)(F)F)ccc3F)n2)cc(OC)c1OC [Compound 618] | 0.91 to 5.46 | 5.46 to 7.97 | 0.91 to 5.46 | 5.46 to 7.97 | < 0.91 | < 0.91 | 7.97 to 10.2 | 0.91 to 5.46 | > 10.2 | 7.97 to 10.2 |
| COc1cc(Nc2ncnc(N[C@@H]3CCCc4ccccc43)n2)cc(OC)c1OC [Compound 620] | 0.982 to 5.89 | 8.59 to 11 | > 11 | 5.89 to 8.59 | > 11 | 0.982 to 5.89 | > 11 | 8.59 to 11 | 8.59 to 11 | > 11 |
| CC(=O)Nc1ccc(Nc2ncnc(N3CCCc4cc(C)ccc43)n2)cc1 [Compound 760] | 1.07 to 6.41 | 1.07 to 6.41 | 1.07 to 6.41 | 1.07 to 6.41 | > 12 | < 1.07 | > 12 | 1.07 to 6.41 | > 12 | > 12 |
| CCN(c1cccc(C)c1)c1ncnc(Nc2cc(OC)c(OC)c(OC)c2)n1 [Compound 537] | < 1.01 | 1.01 to 6.07 | 1.01 to 6.07 | 1.01 to 6.07 | 1.01 to 6.07 | < 1.01 | 8.85 to 11.4 | < 1.01 | > 11.4 | > 11.4 |
| c1ccc(CNc2nc3ccccc3n2-c2ncnc(Nc3cccc(Cc4nnn[nH]4)c3)n2)nc1 [Compound 958] | 0.839 to 5.04 | 0.839 to 5.04 | 0.839 to 5.04 | 0.839 to 5.04 | 0.839 to 5.04 | 0.839 to 5.04 | 0.839 to 5.04 | < 0.839 | 5.04 to 7.35 | 5.04 to 7.35 |
| COc1ccc(CNc2ncnc(Nc3ccc4c(cnn4Cc4ccccc4)c3)n2)cc1OC [Compound 732] | > 9.62 | > 9.62 | > 9.62 | > 9.62 | 7.49 to 9.62 | 7.49 to 9.62 | > 9.62 | > 9.62 | 7.49 to 9.62 | > 9.62 |
| c1ccc(Cn2ncc3cc(Nc4ncnc(NCc5ccco5)n4)ccc32)cc1 [Compound 728] | > 11.3 | > 11.3 | > 11.3 | 1.01 to 6.04 | 1.01 to 6.04 | 1.01 to 6.04 | > 11.3 | 1.01 to 6.04 | 1.01 to 6.04 | > 11.3 |
| Cc1ccc2c(c1)CCCN2c1ncnc(NCCc2c[nH]c3ccccc23)n1 [Compound 768] | > 11.7 | 9.1 to 11.7 | > 11.7 | 6.24 to 9.1 | > 11.7 | > 11.7 | > 11.7 | 9.1 to 11.7 | > 11.7 | > 11.7 |
| COc1ccc(Nc2ncnc(N3CCCc4ccc(C(F)(F)F)cc43)n2)cc1OC [Compound 535] | 0.927 to 5.56 | < 0.927 | 5.56 to 8.11 | 0.927 to 5.56 | > 10.4 | < 0.927 | > 10.4 | 0.927 to 5.56 | > 10.4 | > 10.4 |
| O=C(O)Cc1cccc(Nc2ncnc(Nc3cccc(Br)c3)n2)c1 [Compound 541] | > 11.2 | < 0.999 | 0.999 to 6 | 8.74 to 11.2 | 0.999 to 6 | < 0.999 | 8.74 to 11.2 | 0.999 to 6 | > 11.2 | > 11.2 |
| COc1cc(Nc2ncnc(-n3c(Nc4ccc(N(C)C)cc4)nc4ccccc43)n2)cc(OC)c1OC [Compound 1051] | < 0.78 | 0.78 to 4.68 | 0.78 to 4.68 | > 8.78 | 4.68 to 6.83 | > 8.78 | 4.68 to 6.83 | < 0.78 | > 8.78 | > 8.78 |
| CN(c1cccc(Cl)c1)c1ncnc(NCC2CCCO2)n1 (centres unmarked) [Compound 739] | > 14.1 | > 14.1 | > 14.1 | > 14.1 | > 14.1 | 1.25 to 7.5 | > 14.1 | > 14.1 | > 14.1 | > 14.1 |
| COc1ccc(Nc2ncnc(N(C)c3ccc(Cl)c(Cl)c3)n2)cc1OC [Compound 758] | < 0.985 | < 0.985 | < 0.985 | < 0.985 | 5.91 to 8.61 | < 0.985 | > 11.1 | 0.985 to 5.91 | > 11.1 | > 11.1 |
| CN(C)CCNc1ncnc(Nc2ccc3c(cnn3Cc3ccccc3)c2)n1 [Compound 733] | > 11.6 | > 11.6 | > 11.6 | > 11.6 | > 11.6 | 1.03 to 6.18 | > 11.6 | > 11.6 | > 11.6 | > 11.6 |
| Cc1ccc2c(c1)CCCN2c1ncnc(NCCN2CCOCC2)n1 [Compound 776] | > 12.7 | > 12.7 | > 12.7 | > 12.7 | > 12.7 | > 12.7 | > 12.7 | > 12.7 | > 12.7 | > 12.7 |
| COc1ccc(Nc2ncnc(NCCCOC(C)C)n2)cc1OC [Compound 785] | > 13 | > 13 | > 13 | > 13 | > 13 | > 13 | > 13 | > 13 | > 13 | > 13 |
| COc1ccc(CCNc2ncnc(N3CCCc4cc(C)ccc43)n2)cc1OC [Compound 771] | > 11.1 | > 11.1 | > 11.1 | > 11.1 | > 11.1 | > 11.1 | > 11.1 | 5.92 to 8.63 | > 11.1 | > 11.1 |
| COc1cc(Nc2ncnc(N[C@H]3CCCc4ccccc43)n2)cc(OC)c1OC [Compound 619] | 5.89 to 8.59 | 8.59 to 11 | > 11 | > 11 | > 11 | 8.59 to 11 | > 11 | 5.89 to 8.59 | > 11 | 8.59 to 11 |
